Patent publication US9365608B2, “Method for treating diabetes” (Ohr Pharmaceutical, Inc., priority 2007, dated 2016)
“Also recorded” adds a separate entry of the source.

Key:
Db/db (Lepr^db) mouse [1] = test: Fasting blood glucose in the diabetic Db/db mouse; assay type: in vivo; details: Db/db mice; for % Reduction in FBG: 5 or 10 mg/kg ip every 3 days x4 doses, study day 14 after overnight fast, vs saline; for Reduction of FBG levels compared to saline control (in words): study day 14
Protocol: (§1) To determine in vivo efficacy of the steroid analogues a Db/db (Lepr^db) in mouse model was used. Db/db mice are extensively used for screening of antidiabetic agents. Db/db mice were treated with either saline or 5 or 10 mg/kg steroid analogue every 3 days for a total of 4 doses via ip injection. Body weight, glucose tolerance and fasting blood glucose levels were measured for each group during the study. Each group had at least an N of 4 animals. All reagents and lab animals are commercially available.
On study day 13, all animal groups were fasted overnight. On study day 14, 25 μL of whole blood was collected and analyzed for the glucose level (mg/dL) using a glucose analyzer.

Db/db (Lepr^db) mouse [2] = test: Oral glucose tolerance test (OGTT) in the diabetic Db/db mouse; assay type: in vivo; details: for % Reduction in OGTT Above Baseline AUC / Reduction in ABAUC compared to saline control (in words): Db/db mice; for % Reduction in OGTT Above Baseline AUC: 5 or 10 mg/kg ip every 3 days x4, day 14, oral glucose 1.5 g/kg, 0-120 min, vs saline; for Reduction in ABAUC compared to saline control (in words): OGTT study day 14, p<0.05; for Response in glucose tolerance test vs saline treated controls (FIG. 3 legend): legend says ob/ob mice
Protocol: as §1
Also on study day 14, an OGTT was performed to assess glucose tolerance. At time 0, an oral glucose challenge (1.5 g/kg) was administered by oral gavage. At timepoints 0, 15, 30, 60, 90, 120 min post glucose load, 25 μl of whole blood was withdrawn from the tail vein of the animal and the glucose level was measured using a glucose analyzer. The glucose concentration vs time was plotted (FIG. 2). Above baseline area under the curve (ABAUC) of the glucose excursion time curve was determined using trapezoidal rule analyses.

Db/db (Lepr^db) mouse [3] = test: Body weight change in the diabetic Db/db mouse; assay type: in vivo; details: Db/db mice, 5 or 10 mg/kg ip every 3 days x4; for % Change in Body Weight: vs body weight on study day 0
Protocol: as §1
Starting at study day 0, body weight measurements were taken every day for each group for up to 30 days. Percent change in body weight was calculated as the fractional response of body weight on study day X over the original body weight on study day 0.

full length TCPTP = molecular target: T1, full length TCPTP (Homo sapiens, UniProt P17706); test: Inhibition of TCPTP by steroid analogues (pNPP hydrolysis); assay type: biochemical; details: 200 μM inhibitor; pNPP substrate
T1 construct: except full length TCPTP was used as the enzyme
T1 sequence (P17706 1-415): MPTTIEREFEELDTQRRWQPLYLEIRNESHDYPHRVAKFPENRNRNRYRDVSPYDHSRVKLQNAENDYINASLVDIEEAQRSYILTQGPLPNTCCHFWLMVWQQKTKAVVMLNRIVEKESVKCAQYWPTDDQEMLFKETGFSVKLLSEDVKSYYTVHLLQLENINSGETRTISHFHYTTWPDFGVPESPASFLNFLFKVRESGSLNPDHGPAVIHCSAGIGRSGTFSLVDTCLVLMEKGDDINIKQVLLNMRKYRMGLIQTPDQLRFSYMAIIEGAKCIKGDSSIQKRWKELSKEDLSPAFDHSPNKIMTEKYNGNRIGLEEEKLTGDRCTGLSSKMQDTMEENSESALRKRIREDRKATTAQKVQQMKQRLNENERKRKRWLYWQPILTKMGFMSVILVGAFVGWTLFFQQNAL
Protocol: (§2) The steroid analogues were tested for inhibition against the commercially available full length tyrosine phosphatase PTP1B. The ability of each analogue to inhibit the activity of PTP1B was measured in the presence of 10 μM of the steroid analogue. The assay uses para-nitro-phenyl phosphate (pNPP), a non-specific substrate to assess phosphatase activity. Phosphatase activity was based on the ability of PTP 1B to catalyze the hydrolysis of pNPP to p-nitrophenol (pNP).
The steroid analogues were also tested for their ability to inhibit the tyrosine phosphatase TCPTP as an indication of their potential toxicity by the inhibition of the immune response. The TCPTP inhibition assay was done in the same manner as the PTP1B assay except full length TCPTP was used as the enzyme and the inhibitor was at a concentration of 200 μM. The results of the TCPTP inhibition assays are shown in Table 1, column D and show three compounds that inhibit TCPTP less than 50% even at a 20 fold greater concentration.

[4] = molecular target: T2, full length tyrosine phosphatase PTP1B (Homo sapiens, UniProt P18031); test: Inhibition of PTP1B by steroid analogues (pNPP hydrolysis, absorbance 405 nm); assay type: biochemical; details: read-out: PTP1B Inhibition (5 μM)
T2 construct: commercially available full length tyrosine phosphatase PTP1B; purchased
T2 sequence (P18031 1-435): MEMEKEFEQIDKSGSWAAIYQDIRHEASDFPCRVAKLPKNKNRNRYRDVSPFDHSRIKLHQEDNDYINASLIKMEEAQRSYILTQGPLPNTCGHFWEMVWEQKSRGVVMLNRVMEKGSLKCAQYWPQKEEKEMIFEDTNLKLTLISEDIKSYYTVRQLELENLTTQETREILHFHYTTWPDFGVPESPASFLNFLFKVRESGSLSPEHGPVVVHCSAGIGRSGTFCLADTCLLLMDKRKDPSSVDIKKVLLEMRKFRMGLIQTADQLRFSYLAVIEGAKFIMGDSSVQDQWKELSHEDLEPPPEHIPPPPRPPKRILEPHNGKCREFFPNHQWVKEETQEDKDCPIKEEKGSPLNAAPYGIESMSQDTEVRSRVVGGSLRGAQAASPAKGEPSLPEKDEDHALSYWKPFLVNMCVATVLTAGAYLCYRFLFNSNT
Protocol: as §2, with “The ability of each analogue to inhibit the activity of PTP1B was measured in the presence of 10 μM of the steroid analogue.” left out

[5] = system: Insulin Receptor β (IR-β) in the hypothalamus; test: Phosphorylation of IR-β in the rat hypothalamus (IP / anti-pTyr western blot); assay type: in vivo; details: male SD rats, 10 mg/kg i.p. Day 0; insulin 100 U/kg i.p. Day 1; 15 or 30 min post-dose; listed as MSI-1436, 10 mg/kg
Protocol: Male SD rats were divided into 8 groups with 4 rats per group. All rats were fed ad libitum normal rodent chow and regular tap water. On Day 0, rats were dosed via intraperitoneal (i.p.) injection with 10 mg/kg MSI-1436 or 0.9% saline. Rats were fasted overnight from Day 0 to Day 1. On Day 1, animals were dosed i.p. with 0.9% saline or 100 U/kg of insulin. At 15 or 30 minutes post-dose (Day 1), animals were sacrificed and the hypothalamuses were harvested, transferred to 1.5 mL eppendorf tubes, and frozen in liquid nitrogen. Samples were stored at −80° C. until further analysis. Hypothalamuses were pooled (3-4 per group) and homogenized in 2-mL Wheaton vials and Dounce homogenizers in 1 mL of tissue extraction reagent plus phosphatase and protease inhibitors. Lysates were centrifuged for 10 minutes at 4° C. (14,000 rpm) and the supernatants were transferred to new 1.5 mL eppendorf tubes. Lysates (500 μg) were immunoprecipitated for Insulin Receptor β overnight at 4° C. The samples were then bound to Protein A according to standard protocols for 4 hours at 4° C. […]
500 μg of total protein from each sample was loaded onto a 1.5 mm 4-12% Bis-Tris Novex gel and run at 175V for approximately 1 hr in 1×MOPS buffer. […] The ratio of the pTyr-IRβ band to the IRβ band was computed in Excel and the fold change in IR phosphorylation determined. […]

[6] = previously described in US patents; cited from earlier work

Row | SMILES | % Reduction in FBG (Db/db (Lepr^db) mouse [1]) | Reduction of FBG levels compared to saline control (in words) (Db/db (Lepr^db) mouse [1]) | % Reduction in OGTT Above Baseline AUC (Db/db (Lepr^db) mouse [2]) | Reduction in ABAUC compared to saline control (in words) (Db/db (Lepr^db) mouse [2]) | % Change in Body Weight (Db/db (Lepr^db) mouse [3]) | inhibition at 200 µM (full length TCPTP) | further results
1 | COC(=O)CC[C@@H](C)[C@H]1CCC2C3C[C@@H](O)[C@H]4C[C@@H](NCCN)CC[C@]4(C)C3CC[C@@]21C (stereo partly drawn) [Compound 1431] | 55% | significant reduction | 47% | significant reduction | −7% | – | Weight loss (in words) (Db/db (Lepr^db) mouse [3]): weight loss similar to 1436
2 | COC(=O)CC[C@@H](C)[C@H]1CCC2C3C(CC[C@@]21C)[C@@]1(C)CC[C@H](NCCCNCCCCN)C[C@@H]1C[C@H]3O (stereo partly drawn) [Compound 1320] | – | – | – | – | – | 0% | –
3 | C[C@H](CCS(=O)(=O)O)[C@H]1CCC2C3CC[C@H]4C[C@@H](NCCCNCCCCN)CC[C@]4(C)C3CC[C@@]21C (stereo partly drawn) [Compound 1370] | – | – | – | – | – | 44% | –
4 | CC(C)[C@@H](CC[C@@H](C)[C@H]1CCC2C3C(CC[C@@]21C)[C@@]1(C)CCC(O)C[C@H]1C[C@H]3O)OS(=O)(=O)O (stereo partly drawn) [Compound 2459] | – | – | – | – | – | – | inhibition at 5 µM [4]: 17%
5 | CC(C)[C@@H](CC[C@@H](C)[C@H]1CCC2C3C(CC[C@@]21C)[C@@]1(C)CC[C@H](NCCCNCCCCNCCCN)C[C@@H]1C[C@H]3O)OS(=O)(=O)O (stereo partly drawn) [Compound 1873] | 41% | significant reduction | 47% | significant reduction | 4% | – | Response in glucose tolerance test vs saline treated controls (FIG. 3 legend) (Db/db (Lepr^db) mouse [2]): respond significantly faster; Weight loss (in words) (Db/db (Lepr^db) mouse [3]): do not produce weight loss
6 | CC(C)[C@@H](CC[C@@H](C)C1CCC2C3C(CC[C@@]21C)[C@@]1(C)CCC(=O)C[C@H]1C[C@@H]3O)S(=O)(=O)O (stereo partly drawn) [Compound 2347] | – | – | – | – | – | – | inhibition at 5 µM [4]: 27%
7 | CC(C)CCC[C@@H](C)[C@H]1CCC2C3C(CC[C@@]21C)[C@@]1(C)CC[C@H](NCCCNCCCCN)C[C@@H]1C[C@H]3O (stereo partly drawn) [Compound 1371] | – | – | – | – | – | 0% | –
8 | CC(C)[C@@H](CC[C@@H](C)[C@H]1CCC2C3C(CC[C@@]21C)[C@@]1(C)CC[C@H](NCCCNCCCCNCCCN)C[C@@H]1C[C@H]3O)OS(=O)(=O)O (stereo partly drawn) [Compound 1436] | 64% | significant reduction | 83% | significant reduction | −8% | 0% | Amount of phospho-Tyrosine on insulin stimulated IR-β in the hypothalamus (fold change, pTyr-IRβ/IRβ) [5]: can increase the level; also recorded: nearly doubles; Weight gain and appetite in animal models [6]: inhibit weight gain and suppress appetite
9 | CC(C)CCC[C@@H](C)[C@H]1CCC2C3CC[C@H]4C[C@@H](NCCCNCCCCNCCCN)CC[C@]4(C)C3CC[C@@]21C (stereo partly drawn) [Compound 1303] | – | – | – | – | – | 83% | –
10 | CNCCNC(C)[C@H]1CCC2C3CC=C4CC(O)CC[C@]4(C)C3CC[C@@]21C (stereo partly drawn) [Compound 2498] | – | – | – | – | – | – | inhibition at 5 µM [4]: 13%
11 | CC(C)[C@H](OS(=O)(=O)O)[C@@H](C)[C@H]1CCC2C3C(CC[C@@]21C)[C@@]1(C)CC[C@H](NCCCNCCCCNCCCN)C[C@@H]1C[C@H]3O (stereo partly drawn) [Compound 1814] | 46% | significant reduction | 60% | significant reduction | – | – | –
12 | CC(C)[C@@H](CC[C@@H](C)[C@H]1CCC2C3C(CC[C@@]21C)[C@@]1(C)CC[C@H](NCCCNCCCCNCCCN)C[C@H]1C[C@H]3O)OS(=O)(=O)O (stereo partly drawn) [Compound 1701] | 40% | significant reduction | 49% | significant reduction | 3% | – | Response in glucose tolerance test vs saline treated controls (FIG. 3 legend) (Db/db (Lepr^db) mouse [2]): respond significantly faster; Weight loss (in words) (Db/db (Lepr^db) mouse [3]): do not produce weight loss
